Experimental data taken from patent publication US8293258B2, “Pesticide treatments made from hop extracts” (John I. Hass, Inc., priority 2000, dated 2012).

What was measured:
[1] = system: Erysiphe (=Uncinula) necator; experiment: Grapevine powdery mildew control test (experimental vineyard); format: in vivo; details: standard control fungicide, concentration not given; percent of grape clusters that showed disease
Protocol: The grapevine powdery mildew organism is the fungus Erysiphe (=Uncinula) necator and the host plant is wine grape plant Vitis vinifera. Tests were conducted in an experimental vineyard near Pasco, Wash. Treatments were applied using an airblast sprayer at a volume of 100 gallons per acre. Disease inoculum was natural and had been the heaviest it has been in at least seven years. Plot size was five grape plants. Treatments were replicated four times and evaluations were made on September 4th. […] Percent severity is the portion of each grape cluster that was covered with symptoms.

[2] = system: predator mites Galendromus occidentalis and Neoseiulus fallacis; details: in vivo
Description: Final concentrations of each component of the tank mix are: one-half percent liquid soap, one percent crop oil and one percent beta acids.
This mixture was applied to hop plants using a Windmill 400 gallon airblast sprayer. The mixture was applied to a one-acre test plot at the rate of 20 gallons per acre and to another one-acre plot at the rate of 100 gallons per acre. A total of five applications were made during the growing season. The first was made June 9th and the final on August 1st. Counts of live spider mites were made periodically during the season to monitor the effect of the product on the number of live mites. Simultaneously, the beneficial predator mites Galendromus occidentalis and Neoseiulus fallacis were counted to determine the effect of the product on these predator mites since these predator mites are useful in helping to reduce the numbers of twospotted spider mites.

| Molecule | Percent Incidence [1] [%] | predator numbers [2] | predator numbers, highest reached [2] [per leaf] |
| --- | --- | --- | --- |
| OC(c1ccc(Cl)cc1)(c1cncnc1)c1ccccc1Cl (stereo not drawn) [Standard Control, Fenarimol] | 71 |  |  |
| Beta Acids |  | quite high | ≤ 12 |
